From patent US9540343B2 (Gilead Sciences, Inc., priority 2011, dated 2017)

Experiments:
HIV-IIIb = assay: Test A: Antiviral assay in MT4 cells; format: cell-based, HIV-1; conditions: Human immunodeficiency virus 1, IIIB, MT4, 120 h, read-out: % inhibition at 2 μM, percent inhibition of virus-induced cell killing, from dose response curve at 2 uM drug; MT-4 cells infected with HIV-IIIb, 5 days, CellTiter-Glo
in vitro = conditions: human, uninfected MT-4 cells, CC50 (nM), same protocol as Test A, CellTiter-Glo
Procedure, shortened: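 Cytoprotection read-out: CellTiter-Glo chemiluminescence after 5 days at 37 °C of HIV-IIIb-infected MT-4 cells (m.o.i. 0.003) with compound in 10-point 3-fold dilutions, quadruplicate, 10% FBS. Cytotoxicity (CC50) measured identically without virus.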

Compound	inhibition at 2 µM (HIV-IIIb) [%]	CC50 at 5 days (in vitro) [nM]
C#Cc1cn(CC(=O)N[C@@H](Cc2cc(F)cc(F)c2)c2ncccc2-c2ccc(F)c(C(N)=O)c2)nc1C(F)(F)F [Example 341, (S)-5-(2-(2-(3,5-difluorophenyl)-1-(2-(4-ethynyl-3-(trifluoromethyl)-1H-pyrazol-1-yl)acetamido)ethyl)pyridin-3-yl)-2-fluorobenzamide]	13	26600
NC(=O)c1cc(-c2cccnc2[C@H](Cc2cc(F)cc(F)c2)NC(=O)Cn2nc(C(F)(F)F)c3c2C2CC2CC3)ccc1F (stereo partly drawn) [Example 342C, 5-(2-((1S)-2-(3,5-difluorophenyl)-1-(2-(3-(trifluoromethyl)-5,5a,6,6a-tetrahydrocyclopropa[g]indazol-1(4H)-yl)acetamido)ethyl)pyridin-3-yl)-2-fluorobenzamide]	119	13700
CCc1c(C2CC2)c(C(F)(F)F)nn1CC(=O)N[C@@H](Cc1cc(F)cc(F)c1)c1ncccc1-c1ccc(F)c(C(N)=O)c1 [Example 343, (S)-5-(2-(1-(2-(4-cyclopropyl-5-ethyl-3-(trifluoromethyl)-1H-pyrazol-1-yl)acetamido)-2-(3,5-difluorophenyl)ethyl)pyridin-3-yl)-2-fluorobenzamide]	62	15500
Cc1cc(=O)n(CC(=O)N[C@@H](Cc2cc(F)cc(F)c2)c2ncccc2-c2cccc(S(N)(=O)=O)c2)c2ccccc12 [Example 345, (S)—N-(2-(3,5-difluorophenyl)-1-(3-(3-sulfamoylphenyl)pyridin-2-yl)ethyl)-2-(4-methyl-2-oxoquinolin-1(2H)-yl)acetamide]	21	12400
NC(=O)c1cc(-c2cccnc2[C@H](Cc2cc(F)cc(F)c2)NC(=O)Cn2nc3c(c2C(F)(F)F)C(=O)C2CC32)ccc1F (stereo partly drawn) [Example 346D, 5-(2-((1S)-2-(3,5-difluorophenyl)-1-(2-(4-oxo-3-(trifluoromethyl)-4,4-a,5,5a-tetrahydro-2H-cyclopropa[4,5]cyclopenta[1,2-c]pyrazol-2-yl)acetamido)ethyl)pyridin-3-yl)-2-fluorobenzamide]	1	39000
CC1(O)CCCc2c(C(F)F)nn(CC(=O)N[C@@H](Cc3cc(F)cc(F)c3)c3ncccc3-c3ccc(F)c(C(N)=O)c3)c21 (stereo partly drawn) [Example 349B, 5-(2-((1S)-1-(2-(3-(difluoromethyl)-7-hydroxy-7-methyl-4,5,6,7-tetrahydro-1H-indazol-1-yl)acetamido)-2-(3,5-difluorophenyl)ethyl)pyridin-3-yl)-2-fluorobenzamide]	94	40800
NC(=O)c1cc(-c2cccnc2[C@H](Cc2cc(F)cc(F)c2)NC(=O)Cn2cc(C(F)F)c(C(F)(F)F)n2)ccc1F [Example 350, (S)-5-(2-(1-(2-(4-(difluoromethyl)-3-(trifluoromethyl)-1H-pyrazol-1-yl)acetamido)-2-(3,5-difluorophenyl)ethyl)pyridin-3-yl)-2-fluorobenzamide]	10	28100
O=C(Cn1nc(C(F)(F)F)c2c1CCCC2)N[C@@H](Cc1cc(F)cc(F)c1)c1ncncc1-c1ccc(Cl)cc1 [Example 351, (S)—N-(1-(5-(4-chlorophenyl)pyrimidin-4-yl)-2-(3,5-difluorophenyl)ethyl)-2-(3-(trifluoromethyl)-4,5,6,7-tetrahydro-1H-indazol-1-yl)acetamide]	95	8600
Cc1cc2ncn(CC(=O)N[C@@H](Cc3cc(F)cc(F)c3)c3ncccc3-c3cccc(S(=O)(=O)NC4CC4)c3)c2cc1C [Example 353B, (S)—N-(1-(3-(3-(N-cyclopropylsulfamoyl)phenyl)pyridin-2-yl)-2-(3,5-difluorophenyl)ethyl)-2-(5,6-dimethyl-1H-benzo[d]imidazol-1-yl)acetamide]	110	12700
Cc1cc2[nH]cc(CC(=O)N[C@@H](Cc3cc(F)cc(F)c3)c3ncccc3-c3cccc(C(N)=O)c3)c2[nH]c1=O [Example 354, (S)-3-(2-(2-(3,5-difluorophenyl)-1-(2-(6-methyl-5-oxo-4,5-dihydro-1H-pyrrolo[3,2-b]pyridin-3-yl)acetamido)ethyl)pyridin-3-yl)benzamide]	82	> 53000
NC(=O)c1cc(-c2cccnc2[C@H](Cc2cc(F)cc(F)c2)NC(=O)Cn2cc(C3=CCCC3)c(C(F)(F)F)n2)ccc1F [Example 355, (S)-5-(2-(1-(2-(4-cyclopentenyl-3-(trifluoromethyl)-1H-pyrazol-1-yl)acetamido)-2-(3,5-difluorophenyl)ethyl)pyridin-3-yl)-2-fluorobenzamide]	1	9460
CC1(O)CCCc2c(C(F)(F)F)nn(CC(=O)N[C@@H](Cc3cc(F)cc(F)c3)c3ncccc3-c3ccc(F)c(C(N)=O)c3)c21 (stereo partly drawn) [Example 356, 5-(2-((1S)-2-(3,5-difluorophenyl)-1-(2-(7-hydroxy-7-methyl-3-(trifluoromethyl)-4,5,6,7-tetrahydro-1H-indazol-1-yl)acetamido)ethyl)pyridin-3-yl)-2-fluorobenzamide]	76	20600
CC(C)(C)C#Cc1cn(CC(=O)N[C@@H](Cc2cc(F)cc(F)c2)c2ncccc2-c2ccc(F)c(C(N)=O)c2)nc1C(F)(F)F [Example 357, (S)-5-(2-(2-(3,5-difluorophenyl)-1-(2-(4-(3,3-dimethylbut-1-ynyl)-3-(trifluoromethyl)-1H-pyrazol-1-yl)acetamido)ethyl)pyridin-3-yl)-2-fluorobenzamide]	0	8820
NC(=O)c1cccc(-c2cccnc2[C@H](Cc2cc(F)cc(F)c2)NC(=O)Cn2c(C(F)F)nc3ccccc32)c1 [Example 358, (S)-3-(2-(1-(2-(2-(difluoromethyl)-1H-benzo[d]imidazol-1-yl)acetamido)-2-(3,5-difluorophenyl)ethyl)pyridin-3-yl)benzamide]	20	47400
N#Cc1nn(CC(=O)N[C@@H](Cc2cc(F)cc(F)c2)c2ncccc2-c2ccc(F)c(C(N)=O)c2)cc1Br [Example 359, (S)-5-(2-(1-(2-(4-bromo-3-cyano-1H-pyrazol-1-yl)acetamido)-2-(3,5-difluorophenyl)ethyl)pyridin-3-yl)-2-fluorobenzamide]	2	25300
COc1nc2c(CC(=O)N[C@@H](Cc3cc(F)cc(F)c3)c3ncccc3-c3cccc(C(N)=O)c3)c[nH]c2cc1C [Example 360E, (S)-3-(2-(2-(3,5-difluorophenyl)-1-(2-(5-methoxy-6-methyl-1H-pyrrolo[3,2-b]pyridin-3-yl)acetamido)ethyl)pyridin-3-yl)benzamide]	55	13100
COCc1cn(CC(=O)N[C@@H](Cc2cc(F)cc(F)c2)c2ncccc2-c2ccc(F)c(C(N)=O)c2)nc1C(F)(F)F [Example 361, (S)-5-(2-(2-(3,5-difluorophenyl)-1-(2-(4-(methoxymethyl)-3-(trifluoromethyl)-1H-pyrazol-1-yl)acetamido)ethyl)pyridin-3-yl)-2-fluorobenzamide]	8	> 53200
Cc1cc(=O)n(CC(=O)N[C@@H](Cc2cc(F)cc(F)c2)c2ncccc2-c2ccnc(C(N)=O)c2)c2ccccc12 [Example 362, (S)-2-(2-(3,5-difluorophenyl)-1-(2-(4-methyl-2-oxoquinolin-1(2H)-yl)acetamido)ethyl)-3,4′-bipyridine-2′-carboxamide]	23	> 53000
N#Cc1cn(CC(=O)N[C@@H](Cc2cc(F)cc(F)c2)c2ncccc2-c2ccc(F)c(C(N)=O)c2)nc1C(F)(F)F [Example 363, (S)-5-(2-(1-(2-(4-cyano-3-(trifluoromethyl)-1H-pyrazol-1-yl)acetamido)-2-(3,5-difluorophenyl)ethyl)pyridin-3-yl)-2-fluorobenzamide]	2	21900
NC(=O)c1cc(-c2cccnc2[C@H](Cc2cc(F)cc(F)c2)NC(=O)Cn2nc(C(F)(F)F)c3c2C2CC2CC3(F)F)ccc1F (stereo partly drawn) [Example 364, 5-(2-((1S)-1-(2-(4,4-difluoro-3-(trifluoromethyl)-5,5a,6,6a-tetrahydrocyclopropa[g]indazol-1(4H)-yl)acetamido)-2-(3,5-difluorophenyl)ethyl)pyridin-3-yl)-2-fluorobenzamide]	38	3760
O=C(Cc1c[nH]c2ccc(F)cc12)N[C@@H](Cc1cc(F)cc(F)c1)c1ncncc1-c1ccc(Cl)cc1 [Example 365, (S)—N-(1-(5-(4-chlorophenyl)pyrimidin-4-yl)-2-(3,5-difluorophenyl)ethyl)-2-(5-fluoro-1H-indol-3-yl)acetamide]	86	12500
NC(=O)c1cc(-c2cccnc2[C@H](Cc2cc(F)cc(F)c2)NC(=O)Cn2nc(Br)nc2C2CC2)ccc1F [Example 366, (S)-5-(2-(1-(2-(3-bromo-5-cyclopropyl-1H-1,2,4-triazol-1-yl)acetamido)-2-(3,5-difluorophenyl)ethyl)pyridin-3-yl)-2-fluorobenzamide]	6	> 53200
Cc1cc2ccccc2n1CC(=O)N[C@@H](Cc1cc(F)cc(F)c1)c1ncccc1-c1ccc(F)c(C(N)=O)c1 [Example 367, (S)-5-(2-(2-(3,5-difluorophenyl)-1-(2-(2-methyl-1H-indol-1-yl)acetamido)ethyl)pyridin-3-yl)-2-fluorobenzamide]	20	13400
NC(=O)c1cc(-c2cccnc2[C@H](Cc2cc(F)cc(F)c2)NC(=O)Cn2cnc3c(Cl)nccc32)ccc1F [Example 368, (S)-5-(2-(1-(2-(4-chloro-1H-imidazo[4,5-c]pyridin-1-yl)acetamido)-2-(3,5-difluorophenyl)ethyl)pyridin-3-yl)-2-fluorobenzamide]	2	47300
